# In patent US12714715B2, “Agent for treating myopia, preventing myopia and/or suppressing myopia progression” (SANTEN PHARMACEUTICAL CO., LTD., priority 2020, dated 2026):
# Legend:
# guinea pigs = assay: Evaluation of mydriatic action (pupil diameter, pupillary light reflex) after repeated topical administration to one eye; format: in vivo, guinea pig; conditions: guinea pig, in vivo
# Experimental: An atropine solution was repeatedly topically administered to one eye of a guinea pig to evaluate the effect of the solution on mydriasis.
# Atropine sulfate hydrate and glycerin were dissolved in water for injection to prepare 0.001%, 0.0003% and 0.0001% atropine solutions without adjusting the pH.
# Each of the prepared solutions was topically administered to the left eye of guinea pigs (the left eyes of 3 guinea pigs for each solution) in a volume of 10 μL once daily for 5 days. The pupil diameter of each guinea pig was measured before the administration on day 5 as well as 1, 2 and 4 hours after the administration to observe the pupillary light reflex. The measured pupil diameters of each guinea pig at each measurement time were averaged to obtain the average value. The obtained average value was defined as the average pupil diameter. Among each average pupil diameter at each measurement time, the longest diameter was defined as the maximum pupil diameter.
# guinea pig myopia model = assay: Test on suppression of myopia progression (axial length elongation and refractive error) in guinea pig myopia model; format: in vivo, guinea pig (Slc:Hartley); conditions: for Difference of axial lengths / Difference of refraction: 10 μL topical to goggled right eye once daily 14 days, right eye − left eye, average n=6; for Difference of axial lengths / Difference of refraction / Suppression rate of axial length elongation / Suppression rate of refraction / Suppression rate of refractive error: day 14; for Suppression rate of axial length elongation / Suppression rate of refraction / Suppression rate of refractive error: vs vehicle control group
# Experimental: According to the following procedures, the effect of AFDX0250 on the suppression of myopia progression (the axial length elongation and the refractive error) was evaluated.
# AFDX0250 was dissolved in purified water with a buffering agent and a tonicity agent to prepare 0.5% AFDX0250 solution. 1 mol/L sodium hydroxide reagent solution or dilute hydrochloric acid was added to the solution to adjust the pH thereof to neutral. Also, a buffering agent and a tonicity agent were dissolved in purified water to prepare a neutral vehicle. 9.8 mL of the vehicle was mixed with 0.2 mL of 0.5% AFDX0250 solution and stirred to prepare 0.01% AFDX0250 solution. 3 mL, 4 mL and 4.5 mL of the vehicles were mixed with 2 mL, 1 mL and 0.5 mL of 0.01% AFDX0250 solutions, respectively, and stirred to prepare 0.004%, 0.002% and 0.001% AFDX0250 solutions.
# A test tube with a diameter of 18 mm was cut off at the level of 10 mm from the bottom, and the cut-off bottom part was glued to one side of Velcro tape (about 20 mm square) with a hole of an appropriate diameter in the center with an adhesive agent to prepare a lens (goggle). 3-week-old guinea pigs (Slc:Hartley) (n=30) were obtained, and the prepared goggle was covered to the right eye of each guinea pig with an adhesive agent to induce myopia to the guinea pigs. The left eye thereof without goggle was used as control.
# The […] group, 0.004% AFDX0250 solution administration group, […] group (control group) (n=6 per group). In the AFDX0250 solution administration groups, 10 μL of the AFDX0250 solution in each concentration was topically administered to the right eye of each guinea pig once daily for 14 days from the day when the right eye was covered with the goggle (day 0) to day 13. In the control group, 10 μL of the vehicle was topically administered to the right eye of each guinea pig once daily for 14 days from the day when the right eye was covered with the goggle (day 0) to day 13. In the all groups, 10 μL of the vehicle was topically administered to the left eye at the same frequency of administration as that of each group daily for 14 days from day 0 to day 13. The guinea pigs were reared under a normal rearing condition.
# On day 14 from the myopia induction, the axial lengths of right and left eyeballs were measured with an ultrasound axial length measurement device ECHOSCAN US-500 (A-scan) (NIDEK CO., LTD.), and the refractions were measured with the auto refractometer AR-1a (NIDEK CO., LTD.). The difference of axial lengths and the suppression rate of the axial length elongation as well as the difference of refraction and the suppression rate of the refractive error were calculated according to the following formulae. The calculation was performed in Microsoft Excel. Difference of axial lengths (mm)=Axial length of right eye (mm)−Axial length of left eye (mm) Suppression rate of axial length elongation (%)=(1−Difference of axial lengths in AFDX0250 solution administration group/Difference of axial lengths in control group)×100 (Formula) Difference of refraction (D)=Refraction of right eye (D)−Refraction of left eye (D) Suppression rate of refractive error (%)=(1−Difference of refraction in AFDX0250 solution administration group/Difference of refraction in control group)×100 (Formula) (Test Result)
# AFDX0250 was dissolved in purified water with a buffering agent and a tonicity agent to prepare 0.5% AFDX0250 solution. 1 mol/L sodium hydroxide reagent solution or dilute hydrochloric acid was added to the solution to adjust the pH thereof to neutral. Also, a buffering agent and a tonicity agent were dissolved in purified water to prepare a neutral vehicle. 4 mL and 4.8 mL of vehicles were mixed with 1 mL and 0.2 mL of 0.5% AFDX0250 solutions, respectively, and stirred to prepare 0.1% and 0.02% of AFDX0250 solutions. Also, 4 mL of the vehicle was mixed with 1 mL of 0.02% AFDX0250 solution and stirred to prepare 0.004% AFDX0250 solution. […]
# [1] = Example 1, 0.001% solution, topical once daily 14 days
# [2] = Example 1, 0.002% solution, topical once daily 14 days
# [3] = Example 1, 0.004% solution, topical once daily 14 days
# [4] = Example 1, 0.01% solution, topical once daily 14 days
# [5] = Example 2, 0.004% solution, topical once daily 14 days
# [6] = Example 2, 0.02% solution, topical once daily 14 days
# [7] = Example 2, 0.1% solution, topical once daily 14 days
# [8] = Example 2, 0.5% solution, topical once daily 14 days
smiles,measurement,setting,value
"CCN(CC)CC1CCCCN1CC(=O)N1c2ccccc2C(=O)Nc2cccnc21 (single isomer, unassigned; (+)) [AFDX0250, (+)-11-[2-[2-[(diethylamino)methyl]-1-piperidinyl]acetyl]-5,11-dihydro-6H-pyrido[2,3-b][1,4]benzodiazepin-6-one]","Mydriatic action (pupil diameter and pupillary light reflex, in words)",guinea pigs,increased the pupil diameter and decreased the pupillary light reflex
same,Difference of axial lengths,"guinea pig myopia model; Example 1, 0.001% solution",0.17 mm
same,Difference of refraction,"guinea pig myopia model; Example 1, 0.001% solution",−6.12 D
same,Suppression rate of axial length elongation,guinea pig myopia model; [1],15.85%
same,Suppression rate of refraction,guinea pig myopia model; [1],22.78%
same,Difference of axial lengths,"guinea pig myopia model; Example 1, 0.002% solution",0.09 mm
same,Difference of refraction,"guinea pig myopia model; Example 1, 0.002% solution",−2.78 D
same,Suppression rate of axial length elongation,guinea pig myopia model; [2],55.46%
same,Suppression rate of refraction,guinea pig myopia model; [2],64.95%
same,Difference of axial lengths,"guinea pig myopia model; Example 1, 0.004% solution",0.07 mm
same,Difference of refraction,"guinea pig myopia model; Example 1, 0.004% solution",−2.39 D
same,Suppression rate of axial length elongation,guinea pig myopia model; [3],63.39%
same,Suppression rate of refraction,guinea pig myopia model; [3],69.80%
same,Difference of axial lengths,"guinea pig myopia model; Example 1, 0.01% solution",0.06 mm
same,Difference of refraction,"guinea pig myopia model; Example 1, 0.01% solution",−3.63 D
same,Suppression rate of axial length elongation,guinea pig myopia model; [4],68.58%
same,Suppression rate of refraction,guinea pig myopia model; [4],54.19%
same,Difference of axial lengths,"guinea pig myopia model; Example 2, 0.004% solution",0.07 mm
same,Difference of refraction,"guinea pig myopia model; Example 2, 0.004% solution",−3.25 D
same,Suppression rate of axial length elongation,guinea pig myopia model; [5],66.85%
same,Suppression rate of refractive error,guinea pig myopia model; [5],59.27%
same,Difference of axial lengths,"guinea pig myopia model; Example 2, 0.02% solution",0.05 mm
same,Difference of refraction,"guinea pig myopia model; Example 2, 0.02% solution",−2.52 D
same,Suppression rate of axial length elongation,guinea pig myopia model; [6],74.16%
same,Suppression rate of refractive error,guinea pig myopia model; [6],68.43%
same,Difference of axial lengths,"guinea pig myopia model; Example 2, 0.1% solution",0.04 mm
same,Difference of refraction,"guinea pig myopia model; Example 2, 0.1% solution",−2.05 D
same,Suppression rate of axial length elongation,guinea pig myopia model; [7],79.21%
same,Suppression rate of refractive error,guinea pig myopia model; [7],74.35%
same,Difference of axial lengths,"guinea pig myopia model; Example 2, 0.5% solution",0.02 mm
same,Difference of refraction,"guinea pig myopia model; Example 2, 0.5% solution",−2.03 D
same,Suppression rate of axial length elongation,guinea pig myopia model; [8],88.48%
same,Suppression rate of refractive error,guinea pig myopia model; [8],74.64%
same,Effect on the axial length elongation and the refractive error (summary in words),"guinea pig myopia model; summary of Examples 1 and 2 (AFDX0250) and Comparative Examples 1 and 2 (AFDX0116), topical once daily 14 days",strongly suppressed the axial length elongation and the refractive error
